61 compounds from patent US6979686B1, “Substituted pyrazoles as p38 kinase inhibitors” (Pharmacia Corporation, priority 2001, dated 2005) can be followed below.

pIC50: −log10 of the molar value. Where a name gives a salt, the structure may show the parent alone.

Usually pIC50 stands for the negative decadic logarithm of the IC50, by convention in mol/L.

The target of the first assay is T1, human p38 kinase alpha (Homo sapiens, UniProt Q16539).
T1 construct: GST (N, cleaved yes); made in house; host or cells: E. coli DH10B
T1 sequence (Q16539 whole entry): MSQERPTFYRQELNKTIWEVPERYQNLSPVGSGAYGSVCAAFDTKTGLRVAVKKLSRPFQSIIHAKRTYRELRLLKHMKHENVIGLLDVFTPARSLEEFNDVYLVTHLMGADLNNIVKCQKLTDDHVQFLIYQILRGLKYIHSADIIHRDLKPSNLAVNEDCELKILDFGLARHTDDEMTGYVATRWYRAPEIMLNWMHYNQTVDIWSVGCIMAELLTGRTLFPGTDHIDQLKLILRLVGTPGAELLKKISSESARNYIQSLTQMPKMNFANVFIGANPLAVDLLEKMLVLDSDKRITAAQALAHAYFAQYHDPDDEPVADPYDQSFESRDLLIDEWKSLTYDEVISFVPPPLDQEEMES
The assay can be described thus: p38 kinase in vitro assay, phosphorylation of biotinylated PHAS-I with 32P-ATP. The conditions noted are these: @ 1.0 uM. It counts as biochemical.
Turning to `O=S(=O)(NCCCc1[nH]nc(-c2ccc(F)cc2)c1-c1ccncc1)c1ccccc1F` [Example B-1197], the “P38 alpha kinase % inhib @ conc.” value came to 77.0% @.

Regarding `O=C(NCCCc1[nH]nc(-c2ccc(F)cc2)c1-c1ccncc1)NCc1ccccc1` [Example B-1208], the “P38 alpha kinase % inhib @ conc.” value is on record as 82.0% @.

`O=S(=O)(NCCc1[nH]nc(-c2ccc(F)cc2)c1-c1ccncc1)c1ccccc1` [Example B-1014]: the “P38 alpha kinase % inhib @ conc. (uM)” value is listed as 88.0% @.

With `CC(=O)NCCc1[nH]nc(-c2ccc(F)cc2)c1-c1ccncc1` [Example B-0987], the “P38 alpha kinase % inhib @ conc. (uM)” value worked out at 78.0% @.

As to `O=C(NCCCc1[nH]nc(-c2ccc(F)cc2)c1-c1ccncc1)N1CCOCC1` [Example B-1210], the “P38 alpha kinase % inhib @ conc.” value came to 82.0% @.

With `O=S(=O)(NCc1[nH]nc(-c2ccc(F)cc2)c1-c1ccncc1)c1cc(Br)c(Br)s1` [Example B-0136], the “P38 alpha kinase % inhib @ conc.” value worked out at 77.0% @.

The assay is the same for the next values; noted with them: @ 1.0 uM; read-out: P38 alpha kinase % inhib @ conc.
Turning to `COc1cccc(CC(=O)NCc2[nH]nc(-c3ccc(F)cc3)c2-c2ccncc2)c1` [Example B-0040], the inhibition at 1 µM is 93%.

As for `O=C(NCc1[nH]nc(-c2ccc(F)cc2)c1-c1ccncc1)c1cc2ccccc2s1` [Example B-0029], the inhibition at 1 µM worked out at 91%.

Still in this assay, the particulars now being: @ 10.0 uM.
`Cc1c(-c2ccncc2)c(-c2ccc(F)cc2)nn1CC(=O)Nc1ccccc1F` [Example B-2432]: the “P38 alpha kinase IC50, uM or % inhib @ conc. (uM): % inhib” value (“P38 alpha kinase IC50 … % inhib” for short) came to 86.0% 2.

For `Cc1c(-c2ccncc2)c(-c2ccc(F)cc2)nn1CC(=O)Nc1ccccc1C(C)C` [Example B-2433], the “P38 alpha kinase IC50 … % inhib” value is 94.0% @.

With `Cc1c(-c2ccncc2)c(-c2ccc(F)cc2)nn1CC(=O)N(CCc1ccccc1)CCc1ccccn1` [Example B-2402], the “P38 alpha kinase IC50 … % inhib” value is listed as 43.0% @.

As for `Cc1c(-c2ccncc2)c(-c2ccc(F)cc2)nn1CC(=O)Nc1ccc(Cl)nc1` [Example B-2415], the “P38 alpha kinase IC50 … % inhib” value was found to be 94.0% @.

For `COc1ccc2nc(NC(=O)Cn3nc(-c4ccc(F)cc4)c(-c4ccncc4)c3C)sc2c1` [Example B-2414], the “P38 alpha kinase IC50 … % inhib” value is listed as 86.0% @.

In the case of `COCC(C)NC(=O)Cn1nc(-c2ccc(F)cc2)c(-c2ccncc2)c1C` (stereo not shown) [Example B-2325], the “P38 alpha kinase % inhib @ conc.” value is recorded as 60.0% @.

For `CCCC(CCC)NC(=O)Cn1nc(-c2ccc(F)cc2)c(-c2ccncc2)c1C` [Example B-2356], the “P38 alpha kinase % inhib @ conc.” value amounted to 77.0% @.

Take `Cc1ccc(C)c(C(=O)c2ccccc2NC(=O)Cn2nc(-c3ccc(F)cc3)c(-c3ccncc3)c2C)c1` [Example B-2443]: the “P38 alpha kinase IC50 … % inhib” value came to 84.0% @.

`Cc1c(-c2ccncc2)c(-c2ccc(F)cc2)nn1CC(=O)N1CCC(N(C)C(=O)OC(C)(C)C)C1` (stereo not shown) [Example B-2413]: the “P38 alpha kinase IC50 … % inhib” value is recorded as 75.0% @.

The same assay, now with this note: @ 100.0 uM.
As to `CCN(CC)CCN(CCN(CC)CC)C(=O)Cn1nc(-c2ccc(F)cc2)c(-c2ccncc2)c1C` [Example B-2407], the “P38 alpha kinase IC50 … % inhib” value is 47% @.

The same assay, now with this note: Table 8; 1% DMSO; read-out: p38α Kinase Assay IC50.
`C#CCn1nc(N2CCNCC2)c(-c2ccncc2)c1-c1ccc(Cl)cc1` [Example A-318, 1-[5-(4-chlorophenyl)-4-(4-pyridinyl)-1-(2-propynyl)-1H-pyrazol-3-yl]piperazine, trihydrochloride monohydrate]: the pIC50 was 6.54.

Take `COC(=O)N1CCN(c2[nH]nc(-c3ccc(Cl)cc3)c2-c2ccncc2)CC1` [Example A-319, methyl 4-[5-(4-chlorophenyl)-4-(4-pyridinyl)-1H-pyrazol-3-yl]-1-piperazinecarboxylate, monohydrate]: the pIC50 is 5.22.

For `Fc1ccc(-c2[nH]ncc2-c2ccnc(Nc3ccccc3F)n2)cc1` [Example A-325, N-(2-fluorophenyl)-4-[3-(4-fluorophenyl)-1H-pyrazol-4-yl]-2-pyrimidinamine], the pIC50 is 7.68.

The assay is the same for the next values; noted with them: in vitro P38-alpha kinase inhibition; read-out: P38 alpha kinase IC50.
Regarding `Cc1cc(C)c(C(=O)NCCc2[nH]nc(-c3ccc(F)cc3)c2-c2ccncc2)c(C)c1` [Example B-1133], the pIC50 is 6.42.

For the compound `O=S(=O)(NCCc1[nH]nc(-c2ccc(F)cc2)c1-c1ccncc1)c1ccc(Cl)cc1` [Example B-1061], the negative-log IC50 (pIC50) is 7.52.

For the compound `CC(NS(=O)(=O)c1cccc(Cl)c1Cl)c1[nH]nc(-c2ccc(F)cc2)c1-c1ccncc1` (stereo not shown) [Example B-0622], the pIC50 is 7.12.

Turning to `COc1ccc(C)cc1S(=O)(=O)NCCc1[nH]nc(-c2ccc(F)cc2)c1-c1ccncc1` [Example B-1098], the pIC50 is above 7.00.

For the compound `CC(C)=CC(=O)NC(Cc1ccccc1)c1[nH]nc(-c2ccc(F)cc2)c1-c1ccncc1` (stereo not shown) [Example B-0846], the pIC50 is 5.74.

On to `CC(NS(=O)(=O)c1cccc2nonc12)c1[nH]nc(-c2ccc(F)cc2)c1-c1ccncc1` (stereo not shown) [Example B-0654], for which the pIC50 was 5.22.

Consider `CCN(CC)C(=O)N[C@H](C)c1[nH]nc(-c2ccc(F)cc2)c1-c1ccncc1` [Example B-0420], for which the pIC50 is 6.08.

Regarding `CC1(C)C2CCC1(S(=O)(=O)NCCc1[nH]nc(-c3ccc(F)cc3)c1-c1ccncc1)C(=O)C2` (stereo not shown) [Example B-1100], the pIC50 is 6.66.

`CC(NS(=O)(=O)c1ccc(Cl)cc1Cl)c1[nH]nc(-c2ccc(F)cc2)c1-c1ccncc1` (stereo not shown) [Example B-0625]: the pIC50 was 7.64.

As for `O=C(NCCc1[nH]nc(-c2ccc(F)cc2)c1-c1ccncc1)c1ccccc1Br` [Example B-1154], the pIC50 is 7.07.

For the compound `O=S(=O)(NC(Cc1ccccc1)c1[nH]nc(-c2ccc(F)cc2)c1-c1ccncc1)c1ccccc1` (stereo not shown) [Example B-0708], the pIC50 is 5.68.

Turning to `CC(NS(=O)(=O)CC12CCC(CC1=O)C2(C)C)c1[nH]nc(-c2ccc(F)cc2)c1-c1ccncc1` (stereo not shown) [Example B-0611], the negative-log IC50 (pIC50) was 6.19.

Turning to `O=C(NC(Cc1ccccc1)c1[nH]nc(-c2ccc(F)cc2)c1-c1ccncc1)N1CCCC1` (stereo not shown) [Example B-0771], the pIC50 is 6.30.

Turning to `COc1ccc(OC)c(S(=O)(=O)NC(C)c2[nH]nc(-c3ccc(F)cc3)c2-c2ccncc2)c1` (stereo not shown) [Example B-0634], the pIC50 was 6.22.

Regarding `CC(C)NC(=O)NC(C)c1[nH]nc(-c2ccc(F)cc2)c1-c1ccncc1` (stereo not shown) [Example B-0578], the pIC50 is 5.73.

For `CC(NS(=O)(=O)c1ccc(Br)cc1)c1[nH]nc(-c2ccc(F)cc2)c1-c1ccncc1` (stereo not shown) [Example B-0609], the negative-log IC50 (pIC50) is above 7.00.

Turning to `CC(NC(=O)C1CCCN1)c1[nH]nc(-c2ccc(F)cc2)c1-c1ccncc1` (stereo not shown) [Example B-0604], the pIC50 was 6.52.

`O=S(=O)(NCCc1[nH]nc(-c2ccc(F)cc2)c1-c1ccncc1)c1ccc(Cl)s1` [Example B-1101]: the pIC50 is 7.59.

With `O=C(NCc1ccc(S(=O)(=O)NCCc2[nH]nc(-c3ccc(F)cc3)c2-c2ccncc2)s1)c1ccccc1` [Example B-1108], the negative-log IC50 (pIC50) is 6.66.

As for `CCCOC(=O)NC(Cc1ccccc1)c1[nH]nc(-c2ccc(F)cc2)c1-c1ccncc1` (stereo not shown) [Example B-0747], the pIC50 was 5.96.

Staying with this assay, now noted: in vitro P38-alpha kinase; read-out: P38 alpha kinase IC50.
For the compound `O=S(=O)(NCCCc1[nH]nc(-c2ccc(F)cc2)c1-c1ccncc1)c1ccc(C(F)(F)F)cc1` [Example B-1264], the negative logarithm of the IC50 (pIC50) was 6.49.

Turning to `Cc1c(Cl)cccc1S(=O)(=O)NCCCc1[nH]nc(-c2ccc(F)cc2)c1-c1ccncc1` [Example B-1252], the pIC50 is 6.77.

Turning to `O=C(NCCCc1[nH]nc(-c2ccc(F)cc2)c1-c1ccncc1)c1ccc(F)c(F)c1` [Example B-1330], the negative-log IC50 (pIC50) is 7.28.

Take `O=C(c1cc(C(F)(F)F)ccc1F)N1CCC(c2[nH]nc(-c3ccc(F)cc3)c2-c2ccncc2)CC1` [Example B-1405]: the pIC50 was 6.55.

On to `CN(C)c1cccc2c(S(=O)(=O)NCCCc3[nH]nc(-c4ccc(F)cc4)c3-c3ccncc3)cccc12` [Example B-1249], for which the negative-log IC50 (pIC50) is 6.62.

Consider `O=C(c1ccc(Cl)c(Cl)c1)N1CCC(c2[nH]nc(-c3ccc(F)cc3)c2-c2ccncc2)CC1` [Example B-1418], for which the pIC50 is 6.00.

`O=S(=O)(Cc1ccccc1)N1CCC(c2[nH]nc(-c3ccc(F)cc3)c2-c2ccncc2)CC1` [Example B-1374]: the negative logarithm of the IC50 (pIC50) is above 7.00.

Regarding `O=S(=O)(NCCCc1[nH]nc(-c2ccc(F)cc2)c1-c1ccncc1)c1ccccc1C(F)(F)F` [Example B-1263], the negative-log IC50 (pIC50) is 5.98.

Regarding `O=C(NCCCc1[nH]nc(-c2ccc(F)cc2)c1-c1ccncc1)c1cccc(Cl)c1` [Example B-1354], the pIC50 was 7.89.

As for `N#Cc1ccccc1S(=O)(=O)NCCCc1[nH]nc(-c2ccc(F)cc2)c1-c1ccncc1` [Example B-1255], the pIC50 is 4.89.

As for `Cc1cc(C)c(S(=O)(=O)NCCCc2[nH]nc(-c3ccc(F)cc3)c2-c2ccncc2)c(C)c1` [Example B-1244], the pIC50 is 6.59.

Regarding `O=[N+]([O-])c1ccccc1CS(=O)(=O)NCCCc1[nH]nc(-c2ccc(F)cc2)c1-c1ccncc1` [Example B-1247], the pIC50 is above 7.00.

As to `O=S(=O)(c1ccc(F)cc1F)N1CCC(c2[nH]nc(-c3ccc(F)cc3)c2-c2ccncc2)CC1` [Example B-1454], the pIC50 is 5.80.

As to `CCCCS(=O)(=O)N1CCC(c2[nH]nc(-c3ccc(F)cc3)c2-c2ccncc2)CC1` [Example B-1430], the pIC50 is 6.12.

For the compound `COCCNC(=O)NCCCc1[nH]nc(-c2ccc(F)cc2)c1-c1ccncc1` [Example B-1311], the pIC50 was 7.30.

Consider `O=C(NCCCc1[nH]nc(-c2ccc(F)cc2)c1-c1ccncc1)c1ccc(F)cc1F` [Example B-1353], for which the pIC50 was 7.21.

As to `Cc1cccc(C)c1NC(=O)N1CCC(c2[nH]nc(-c3ccc(F)cc3)c2-c2ccncc2)CC1` [Example B-1380], the negative logarithm of the IC50 (pIC50) is above 7.00.

As to `O=S(=O)(c1cccc(F)c1)N1CCC(c2[nH]nc(-c3ccc(F)cc3)c2-c2ccncc2)CC1` [Example B-1464], the pIC50 was 5.93.

Regarding `Cc1c(-c2ccncc2)c(-c2ccc(F)cc2)nn1CC(=O)NCCc1ccc(Cl)c(Cl)c1` [Example B-2303], the negative logarithm of the IC50 (pIC50) was 7.96.

Turning to `CN1CCCC1CCNC(=O)NCCCc1[nH]nc(-c2ccc(F)cc2)c1-c1ccncc1` (stereo not shown) [Example B-1315], the pIC50 was 7.26.
